Patent US5502035A, “N-terminus modified analogs of LHRH” (Tap Holdings Inc., priority 1994, dated 1996)
Non-standard residues stand in square brackets, D forms with d. Residues, ends and D or L forms follow the SMILES beside them. Groups on a side chain read outwards from the residue. *: point of attachment. Shikimoyl = O=C(C1=C[C@@H](O)[C@@H](O)[C@H](O)C1)*; dPhe(4-Cl) = N[C@H](Cc1ccc(Cl)cc1)C(=O)O; d2Nal = N[C@H](Cc1ccc2ccccc2c1)C(=O)O; NMeY = CN[C@@H](Cc1ccc(O)cc1)C(=O)O; d3Pal = N[C@H](Cc1cccnc1)C(=O)O; Nicotinoyl = O=C(c1cccnc1)*

Molecular target: T1, LHRH (Rattus norvegicus, UniProt P30969)
T1 construct: endogenous in cells; host or cells: rat pituitary cells (own knowledge of the cited Haviv 1989 method)
T1 sequence (P30969 1-327): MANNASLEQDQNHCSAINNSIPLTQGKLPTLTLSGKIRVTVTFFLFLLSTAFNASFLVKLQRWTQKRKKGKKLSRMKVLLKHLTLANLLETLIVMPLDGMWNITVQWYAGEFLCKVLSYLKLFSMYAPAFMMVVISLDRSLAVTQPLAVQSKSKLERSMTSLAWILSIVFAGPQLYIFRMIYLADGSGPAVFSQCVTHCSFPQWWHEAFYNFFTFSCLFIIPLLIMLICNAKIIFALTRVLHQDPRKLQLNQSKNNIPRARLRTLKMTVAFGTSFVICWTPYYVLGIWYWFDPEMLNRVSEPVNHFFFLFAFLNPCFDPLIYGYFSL
Assay: in vitro test for LHRH antagonist potency (pA2)
Type: cell-based
Settings: negative logarithm of the antagonist concentration required to shift the response curve produced by the agonist leuprolide to two-fold higher concentration
Method in brief: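 Rat LHRH receptor in vitro functional test; pA2 = negative log of the antagonist concentration shifting the leuprolide agonist response curve to two-fold higher concentration.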

**Q.** Which Kb does the source give for CC(C)C[C@H](NC(=O)[C@@H](CCCCNC(=O)C1=C[C@@H](O)[C@@H](O)[C@H](O)C1)NC(=O)[C@H](Cc1ccc(O)cc1)N(C)C(=O)[C@H](CO)NC(=O)[C@@H](Cc1cccnc1)NC(=O)[C@@H](Cc1ccc(Cl)cc1)NC(=O)[C@@H](Cc1ccc2ccccc2c1)NC(=O)[C@@H](C)NC(=O)C1=C[C@@H](O)[C@@H](O)[C@H](O)C1)C(=O)N[C@@H](CCCNC(=N)N)C(=O)N1CCC[C@H]1C(=O)N[C@H](C)C(N)=O [Example 14d, N-Shikimyl-DAla-D2Nal-D4ClPhe-D3Pal-Ser-NMeTyr-DLys(Shik)-Leu-Arg-Pro-DAlaNH2] (Shikimoyl-[dA][d2Nal][dPhe(4-Cl)][d3Pal]S[NMeY][dK](Shikimoyl)LRP[dA]-NH2) here?
**A.** Its Kb is 0.00891 nM.

**Q.** How did the Kb turn out when CC(C)C[C@H](NC(=O)[C@@H](CCCCNC(=O)C1=C[C@@H](O)[C@@H](O)[C@H](O)C1)NC(=O)[C@H](Cc1ccc(O)cc1)N(C)C(=O)[C@H](CO)NC(=O)[C@@H](Cc1cccnc1)NC(=O)[C@@H](Cc1ccc(Cl)cc1)NC(=O)[C@@H](Cc1ccc2ccccc2c1)NC(=O)[C@@H](CO)NC(=O)c1cccnc1)C(=O)N[C@@H](CCCNC(=N)N)C(=O)N1CCC[C@H]1C(=O)N[C@H](C)C(N)=O [Example 14e, N-Nicotinyl-DSer-D2Nal-D4ClPhe-D3Pal-Ser-NMeTyr-DLys(Shik)-Leu-Arg-Pro-DAlaNH2] (Nicotinoyl-[dS][d2Nal][dPhe(4-Cl)][d3Pal]S[NMeY][dK](Shikimoyl)LRP[dA]-NH2) was run?
**A.** The Kb was 0.0195 nM.

**Q.** With CC(C)C[C@H](NC(=O)[C@@H](CCCCNC(=O)C1=C[C@@H](O)[C@@H](O)[C@H](O)C1)NC(=O)[C@H](Cc1ccc(O)cc1)N(C)C(=O)[C@H](CO)NC(=O)[C@@H](Cc1cccnc1)NC(=O)[C@@H](Cc1ccc(Cl)cc1)NC(=O)[C@@H](Cc1ccc2ccccc2c1)NC(=O)[C@@H](CO)NC(=O)C1=C[C@@H](O)[C@@H](O)[C@H](O)C1)C(=O)N[C@@H](CCCNC(=N)N)C(=O)N1CCC[C@H]1C(=O)N[C@H](C)C(N)=O [Example 14f, N-Shikimyl-DSer-D2Nal-D4ClPhe-D3Pal-Ser-NMeTyr-DLys(Shik)-Leu-Arg-Pro-DAlaNH2] (Shikimoyl-[dS][d2Nal][dPhe(4-Cl)][d3Pal]S[NMeY][dK](Shikimoyl)LRP[dA]-NH2) as the compound, how does the Kb read?
**A.** The Kb was 0.0355 nM.

**Q.** CC(C)C[C@H](NC(=O)[C@@H](CCCCNC(=O)C1=C[C@@H](O)[C@@H](O)[C@H](O)C1)NC(=O)[C@H](Cc1ccc(O)cc1)N(C)C(=O)[C@H](CO)NC(=O)[C@@H](Cc1cccnc1)NC(=O)[C@@H](Cc1ccc(Cl)cc1)NC(=O)[C@@H](Cc1ccc2ccccc2c1)NC(=O)[C@@H](CCCCNC(=O)c1cccnc1)NC(=O)c1cccnc1)C(=O)N[C@@H](CCCNC(=N)N)C(=O)N1CCC[C@H]1C(=O)N[C@H](C)C(N)=O [Example 14g, N-Nicotinyl-DLys(Nic)-D2Nal-D4ClPhe-D3Pal-Ser-NMeTyr-DLys(Shik)-Leu-Arg-Pro-DAlaNH2] (Nicotinoyl-[dK](Nicotinoyl)[d2Nal][dPhe(4-Cl)][d3Pal]S[NMeY][dK](Shikimoyl)LRP[dA]-NH2) was tested. Which Kb did it give?
**A.** Its Kb is 0.11 nM.

**Q.** CC(C)C[C@H](NC(=O)[C@@H](CCCCNC(=O)C1=C[C@@H](O)[C@@H](O)[C@H](O)C1)NC(=O)[C@H](Cc1ccc(O)cc1)N(C)C(=O)[C@H](CO)NC(=O)[C@@H](Cc1cccnc1)NC(=O)[C@@H](Cc1ccc(Cl)cc1)NC(=O)[C@@H](Cc1ccc2ccccc2c1)NC(=O)[C@@H](CCCCNC(=O)c1cccnc1)NC(=O)C1=C[C@@H](O)[C@@H](O)[C@H](O)C1)C(=O)N[C@@H](CCCNC(=N)N)C(=O)N1CCC[C@H]1C(=O)N[C@H](C)C(N)=O [Example 14h, N-Shikimyl-DLys(Nic)-D2Nal-D4ClPhe-D3Pal-Ser-NMeTyr-DLys(Shik)-Leu-Arg-Pro-DAlaNH2] (Shikimoyl-[dK](Nicotinoyl)[d2Nal][dPhe(4-Cl)][d3Pal]S[NMeY][dK](Shikimoyl)LRP[dA]-NH2) was tested. Which Kb did it give?
**A.** The Kb was 0.00417 nM.

**Q.** For CC(C)C[C@H](NC(=O)[C@@H](CCCCNC(=O)C1=C[C@@H](O)[C@@H](O)[C@H](O)C1)NC(=O)[C@H](Cc1ccc(O)cc1)N(C)C(=O)[C@H](CO)NC(=O)[C@@H](Cc1cccnc1)NC(=O)[C@@H](Cc1ccc(Cl)cc1)NC(=O)[C@@H](Cc1ccc2ccccc2c1)NC(=O)[C@@H](CCCCNC(=O)C1=C[C@@H](O)[C@@H](O)[C@H](O)C1)NC(=O)c1cccnc1)C(=O)N[C@@H](CCCNC(=N)N)C(=O)N1CCC[C@H]1C(=O)N[C@H](C)C(N)=O [Example 14i, N-Nicotinyl-DLys(Shik)-D2Nal-D4ClPhe-D3Pal-Ser-NMeTyr-DLys(Shik)-Leu-Arg-Pro-DAlaNH2] (Nicotinoyl-[dK](Shikimoyl)[d2Nal][dPhe(4-Cl)][d3Pal]S[NMeY][dK](Shikimoyl)LRP[dA]-NH2), which Kb is on record?
**A.** Its Kb is 0.339 nM.

**Q.** For CC(C)C[C@H](NC(=O)[C@@H](CCCCNC(=O)C1=C[C@@H](O)[C@@H](O)[C@H](O)C1)NC(=O)[C@H](Cc1ccc(O)cc1)N(C)C(=O)[C@H](CO)NC(=O)[C@@H](Cc1cccnc1)NC(=O)[C@@H](Cc1ccc(Cl)cc1)NC(=O)[C@@H](Cc1ccc2ccccc2c1)NC(=O)[C@@H](CCCCNC(=O)C1=C[C@@H](O)[C@@H](O)[C@H](O)C1)NC(=O)C1=C[C@@H](O)[C@@H](O)[C@H](O)C1)C(=O)N[C@@H](CCCNC(=N)N)C(=O)N1CCC[C@H]1C(=O)N[C@H](C)C(N)=O [Example 14j, N-Shikimyl-DLys(Shik)-D2Nal-D4ClPhe-D3Pal-Ser-NMeTyr-DLys(Shik)-Leu-Arg-Pro-DAlaNH2] (Shikimoyl-[dK](Shikimoyl)[d2Nal][dPhe(4-Cl)][d3Pal]S[NMeY][dK](Shikimoyl)LRP[dA]-NH2), which Kb is on record?
**A.** Its Kb is 0.759 nM.

**Q.** How did the Kb turn out when CC(C)C[C@H](NC(=O)[C@@H](CCCCNC(=O)C1=C[C@@H](O)[C@@H](O)[C@H](O)C1)NC(=O)[C@H](Cc1ccc(O)cc1)N(C)C(=O)[C@H](CO)NC(=O)[C@@H](Cc1cccnc1)NC(=O)[C@@H](Cc1ccc(Cl)cc1)NC(=O)[C@@H](Cc1ccc2ccccc2c1)NC(=O)CNC(=O)c1cccnc1)C(=O)N[C@@H](CCCNC(=N)N)C(=O)N1CCC[C@H]1C(=O)N[C@H](C)C(N)=O [Example 14k, N-Nicotinyl-Gly-D2Nal-D4ClPhe-D3Pal-Ser-NMeTyr-DLys(Shik)-Leu-Arg-Pro-DAlaNH2] (Nicotinoyl-G[d2Nal][dPhe(4-Cl)][d3Pal]S[NMeY][dK](Shikimoyl)LRP[dA]-NH2) was run?
**A.** The Kb was 0.01 nM.

**Q.** Which Kb does the source give for CC(C)C[C@H](NC(=O)[C@@H](CCCCNC(=O)C1=C[C@@H](O)[C@@H](O)[C@H](O)C1)NC(=O)[C@H](Cc1ccc(O)cc1)N(C)C(=O)[C@H](CO)NC(=O)[C@@H](Cc1cccnc1)NC(=O)[C@@H](Cc1ccc(Cl)cc1)NC(=O)[C@@H](Cc1ccc2ccccc2c1)NC(=O)CNC(=O)C1=C[C@@H](O)[C@@H](O)[C@H](O)C1)C(=O)N[C@@H](CCCNC(=N)N)C(=O)N1CCC[C@H]1C(=O)N[C@H](C)C(N)=O [Example 14l, N-Shikimyl-Gly-D2Nal-D4ClPhe-D3Pal-Ser-NMeTyr-DLys(Shik)-Leu-Arg-Pro-DAlaNH2] (Shikimoyl-G[d2Nal][dPhe(4-Cl)][d3Pal]S[NMeY][dK](Shikimoyl)LRP[dA]-NH2) here?
**A.** The Kb was 0.02 nM.

**Q.** CC(C)C[C@H](NC(=O)[C@@H](CCCCNC(=O)c1cccnc1)NC(=O)[C@H](Cc1ccc(O)cc1)N(C)C(=O)[C@H](CO)NC(=O)[C@@H](Cc1cccnc1)NC(=O)[C@@H](Cc1ccc(Cl)cc1)NC(=O)[C@@H](Cc1ccc2ccccc2c1)NC(=O)CNC(=O)C1=C[C@@H](O)[C@@H](O)[C@H](O)C1)C(=O)N[C@@H](CCCNC(=N)N)C(=O)N1CCC[C@H]1C(=O)N[C@H](C)C(N)=O [Example 15a, N-Shikimyl-Gly-D2Nal-D4ClPhe-D3Pal-Ser-NMeTyr-DLys(Nic)-Leu-Arg-Pro-DAlaNH2] (Shikimoyl-G[d2Nal][dPhe(4-Cl)][d3Pal]S[NMeY][dK](Nicotinoyl)LRP[dA]-NH2) was tested. Which Kb did it give?
**A.** The Kb was 0.0631 nM.

**Q.** For CC(C)C[C@H](NC(=O)[C@@H](CCCCNC(=O)CNC(=O)c1cccnc1)NC(=O)[C@H](Cc1ccc(O)cc1)N(C)C(=O)[C@H](CO)NC(=O)[C@@H](Cc1cccnc1)NC(=O)[C@@H](Cc1ccc(Cl)cc1)NC(=O)[C@@H](Cc1ccc2ccccc2c1)NC(=O)CNC(=O)C1=C[C@@H](O)[C@@H](O)[C@H](O)C1)C(=O)N[C@@H](CCCNC(=N)N)C(=O)N1CCC[C@H]1C(=O)N[C@H](C)C(N)=O [Example 15b, N-Shikimyl-Gly-D2Nal-D4ClPhe-D3Pal-Ser-NMeTyr-DLys(Gly-Nic)-Leu-Arg-Pro-DAlaNH2] (Shikimoyl-G[d2Nal][dPhe(4-Cl)][d3Pal]S[NMeY][dK]([Gly-Nicotinoyl])LRP[dA]-NH2), which Kb is on record?
**A.** The Kb was 0.0209 nM.

**Q.** Which Kb does the source give for CC(C)C[C@H](NC(=O)[C@@H](CCCCNC(=O)[C@@H](CO)NC(=O)c1cccnc1)NC(=O)[C@H](Cc1ccc(O)cc1)N(C)C(=O)[C@H](CO)NC(=O)[C@@H](Cc1cccnc1)NC(=O)[C@@H](Cc1ccc(Cl)cc1)NC(=O)[C@@H](Cc1ccc2ccccc2c1)NC(=O)CNC(=O)C1=C[C@@H](O)[C@@H](O)[C@H](O)C1)C(=O)N[C@@H](CCCNC(=N)N)C(=O)N1CCC[C@H]1C(=O)N[C@H](C)C(N)=O [Example 15c, N-Shikimyl-Gly-D2Nal-D4ClPhe-D3Pal-Ser-NMeTyr-DLys(DSer-Nic)-Leu-Arg-Pro-DAlaNH2] (Shikimoyl-G[d2Nal][dPhe(4-Cl)][d3Pal]S[NMeY][dK]([dS-Nicotinoyl])LRP[dA]-NH2) here?
**A.** Its Kb is 0.01 nM.

**Q.** CC(C)C[C@H](NC(=O)[C@@H](CCCCNC(=O)CNC(=O)C1=C[C@@H](O)[C@@H](O)[C@H](O)C1)NC(=O)[C@H](Cc1ccc(O)cc1)N(C)C(=O)[C@H](CO)NC(=O)[C@@H](Cc1cccnc1)NC(=O)[C@@H](Cc1ccc(Cl)cc1)NC(=O)[C@@H](Cc1ccc2ccccc2c1)NC(=O)CNC(=O)C1=C[C@@H](O)[C@@H](O)[C@H](O)C1)C(=O)N[C@@H](CCCNC(=N)N)C(=O)N1CCC[C@H]1C(=O)N[C@H](C)C(N)=O [Example 15d, N-Shikimyl-Gly-D2Nal-D4ClPhe-D3Pal-Ser-NMeTyr-DLys(Gly-Shik)-Leu-Arg-Pro-DAlaNH2] (Shikimoyl-G[d2Nal][dPhe(4-Cl)][d3Pal]S[NMeY][dK]([Gly-Shikimoyl])LRP[dA]-NH2) was tested. Which Kb did it give?
**A.** The Kb was 0.0178 nM.
